Experimental data published in ChEMBL document CHEMBL3507680, “University of Dundee, Gates Library screen for HepG2 cell viability”.

test: Human HepG2 cell viability assay in 384 well format; type: toxicity, cell-based; set-up: dose 125 nL, time 70.5 hour; concentration not given beside the values; settings: HepG2 cells, read-out: Inhibition

Row | Structure (SMILES) | cytotoxicity at 70.5 h [%]
1 | Cc1ccc(NC(=O)CNc2ccccc2C(N)=O)c(C)c1 | 2.06
2 | CC(C)C1CN(C(=O)c2cccs2)CCS1 (stereo not given) | -4.53
3 | Cc1ccccc1N1CCN(C(=O)CCc2nncn2C)C(C)C1 (stereo not given) | -1.67
4 | COC(=O)c1cc(C(=O)N2CCOCC2(C)C)n(-c2ccccc2)n1 | -0.593
5 | Cc1cc(S(=O)(=O)NC(C)(C)CN)c(F)cc1F | -9.88
6 | CC(NC(=O)COc1ccc(F)cc1)c1nnc2n1CCCCC2 (stereo not given) | -4
7 | CN(CC(=O)N1CCN(c2cnccn2)CC1)c1ccc(Cl)cn1 | -13.1
8 | CN(Cc1nccn1CC(F)(F)F)C(=O)c1ccc2c(c1)OCO2 | -11
9 | CCOCCCC(=O)NCC(c1ccccc1)N1CCc2sccc2C1 (stereo not given) | 16.8
10 | CCc1cc(NCC(O)CN2CCCCC2)ncn1 (stereo not given) | -4.61
11 | Cc1nc(CNCC2CN(C3CC3)CCO2)cs1 (stereo not given) | 23.8
12 | CC(C)c1nnc(CNc2ccc(SC(F)(F)F)cc2)o1 | 36.9
13 | CCN(Cc1ccc2c(c1)OCCO2)S(=O)(=O)N(C)C(C)C | -7.62
14 | O=C(NCCO)C1(Cc2ccccc2-c2cccnc2)CCOCC1 | -10.7
15 | Cc1cc(=O)n(CCNS(=O)(=O)c2cccc(C(F)(F)F)c2)cn1 | -8.24
16 | CC(=O)N1CCCc2sc(C(=O)NC3CC3)nc21 | -6.9
17 | CS(=O)(=O)CCN1CCc2c(ncn2C2CC2)C1 | -3.42
18 | CCOC(=O)C1CN(S(C)(=O)=O)Cc2ncn(CC)c21 (stereo not given) | -0.182
19 | O=C(NC[C@H]1OC[C@@H](NC2CCC2)[C@@H]1O)c1cccs1 | -5.08
20 | O=C1COC2(CCN(C(=O)c3ccco3)CC2)CN1Cc1ccccn1 | -1.65
21 | CC(Cn1cccn1)NC(=O)Nc1ccc(N(C)C)nc1 (stereo not given) | 19.1
22 | CCOCC1CN(S(=O)(=O)C2CC2)Cc2cnn(C)c21 (stereo not given) | 20
23 | NC(=O)NC(CC(=O)NCCc1cccc(F)c1)c1cccs1 (stereo not given) | 17

Row | Structure (SMILES) | cytotoxicity at 70.5 h [%]
24 | COc1ccccc1CC(C)CC(=O)NC(C)C (stereo not given) | 0.743
25 | O=C1CN(Cc2cnc3c(-c4ccccc4)cnn3c2)CCCN1 | -6.12
26 | O=C(CCOc1ccc(Cl)cc1)NCCCn1cccn1 | 23.1
27 | Cc1ccc(CC(=O)N2CCCC2Cn2nc(C)cc2C)cn1 (stereo not given) | -11.5
28 | Cc1cnc(CN(C)C2CCN(CCc3cnn(C)c3)C2)o1 (stereo not given) | -0.678
29 | COc1c(F)cc(CN2CCCC3(CC2)CNC(=O)O3)cc1Cl (stereo not given) | 5.1
30 | C1CCC(CN2Cc3nnn(CC4CC4)c3C(COCC3CC3)C2)C1 (stereo not given) | -8.05
31 | CN1C[C@@H](n2cnc(-c3ccccc3)c2-c2c[nH]cn2)C[C@H]1C(=O)O | -7.26
32 | CN(CCCOc1ccccc1)C(=O)c1csc(-c2nnc[nH]2)n1 | -5.84
33 | Cc1cc(CN(C)C(=O)CN2CCCC2=O)no1 | -15.2
34 | COC(=O)C1CCCCN1C(=O)c1cn(C/C=C/c2ccccc2)nn1 (stereo not given) | 23.4
35 | Cc1ccoc1C(=O)N1C[C@@H]2COC[C@]2(CNS(C)(=O)=O)C1 | -3.33
36 | COc1cc(CNCC(O)c2ccc(C)cc2)cc2c1OCO2 (stereo not given) | -2.01
37 | CCc1ccc(CN2CCOC(Cc3cccc(F)c3)C2)nc1 (stereo not given) | -5.34
38 | CC(=O)N1CCC(C(=O)N2CCC2c2nc(-c3ccc(C)s3)no2)CC1 (stereo not given) | 9.04
39 | CS(=O)(=O)c1ccc(CNC[C@H]2COCc3nc4ccccc4n32)cc1 | 5.94
40 | Cc1ccnc(NCCSc2nccn2C)n1 | -5.33
41 | Cc1cc(C)n(C2CN(CC(O)c3cc(F)ccc3F)C2)n1 (stereo not given) | 6.16
42 | CCn1c(C2CCN(C(=O)c3cc(CC(C)C)no3)CC2)nn(C)c1=O | 3.74
43 | O=C(NCc1ccco1)[C@@]12CCO[C@@H]1CCN(Cc1ccccn1)C2 | -3.48
44 | O=C1CCCN1c1cccc(CNCc2cc(F)ccc2F)c1 | -6.99
45 | COCCc1noc(CN(C)c2nc(C)cc(C)n2)n1 | -9.27
46 | O=C(NCC1CCCCO1)c1cc(Cn2cnc3ccccc32)[nH]n1 (stereo not given) | -6.38

Row | Structure (SMILES) | cytotoxicity at 70.5 h [%]
47 | COc1ccc(CN2CCC3(CC2)CCN(CCN(C)C)C3=O)cc1 | -18
48 | COc1ccc(CC(=O)N2CCN(Cc3ccco3)C[C@@H]2C)cc1OC | -3.94
49 | Cc1c[nH]c(C(=O)N2CCn3nc(C(=O)NC4CC4)cc3C2)n1 | 24.5
50 | Cc1nc(C2CN(Cc3ccc(F)cc3Br)CCO2)no1 (stereo not given) | -5.56
51 | CCCc1ccc(C(=O)N2CCn3c(nnc3C(C)C)C2)cc1 | -5.86
52 | COC(=O)COc1cc(NCc2c(C)noc2C)c(Cl)cc1C | -5.04
53 | Cc1cnn(CC(C)NCc2cc(=O)n3ccccc3n2)c1 (stereo not given) | -11.2
54 | CC(=O)N1CCC(Cc2nccnc2-c2c(C)n[nH]c2C)C1 (stereo not given) | -8.33
55 | CNc1ncc(CN(C)Cc2cc(O)c3cccc(Cl)c3n2)cn1 | -15.2
56 | FC1(F)CCNCC12CCN(c1ncccn1)C2 (stereo not given) | -4.34
57 | CCOc1ccccc1CN(C)C(C)c1nc(-c2cccnc2)no1 (stereo not given) | -3.75
58 | CC(C)C(=O)N1CCN(C(=O)c2cc(C(C)C)no2)[C@H]2CS(=O)(=O)C[C@H]21 | -0.523
59 | CCC(NS(C)(=O)=O)c1ccccc1C (stereo not given) | 10.1
60 | O=C1c2cccnc2OC(CN2CCOCC2)CN1C1CCC1 (stereo not given) | -4.26
61 | Cc1ccc(C(CNCc2ncc[nH]2)N2CCOCC2)s1 (stereo not given) | -12.7
62 | Cn1nc(Br)c2c(NCCS(N)(=O)=O)ncnc21 | 28.8
63 | O=C(NCC1CC1)C1CCC2(CCN(C(=O)c3cccnc3)CC2)O1 (stereo not given) | -9.48
64 | O=C(CCNC(=O)c1ccoc1)Nc1cccc(F)c1 | -6.83
65 | CC(C)c1nnc2n1CCN(CC(=O)Nc1sccc1C#N)C2 | 13.5
66 | Cc1noc(C2CCN(C(=O)CCc3ccccn3)CC2)n1 | -4.44
67 | CC(C)c1sc(Cl)nc1C(=O)NCc1ccncc1 | 19.6
68 | Cc1cccc(CN2C(=O)CCC23CCN(c2ccccn2)CC3)n1 | -9.61
69 | CC(CC#N)N(C)Cc1ccccc1Cl (stereo not given) | -7.77

Row | Structure (SMILES) | cytotoxicity at 70.5 h [%]
70 | COc1ccc(OC)c(C(O)CN2CCN(c3cccc(C)c3)CC2)c1 (stereo not given) | 7.32
71 | COc1ccc(CN2CCn3cc(CN4CCCCC4)nc3C2)cc1 | 29.5
72 | COc1ccc(C)cc1-n1cnnc1C1CC(=O)N(C)C1 (stereo not given) | -4.76
73 | O=C1CN(c2ccc(CNc3cncc(-n4cccn4)n3)cc2)CCN1 | -0.149
74 | COc1cc(F)cc(CNC(=O)Nc2ccn(CC(F)F)n2)c1 | -2.34
75 | CN(CCc1ccccn1)CCc1nccs1 | -8.22
76 | Cc1ccc(CC(=O)N2CC[C@@H]3NC(=O)CC[C@@H]32)cc1 | 4.9
77 | O=C(CC1CCC2(CC1)CCN(Cc1nccs1)CC2)N1CC=CC1 | -3.04
78 | Cn1c(CN2CCOCC2)nnc1C1CCCN(CC(N)=O)C1 (stereo not given) | 3.41
79 | NC(=O)COc1ccc(CN2CCC(O)(CN3CCCCC3)C2)cc1Cl (stereo not given) | -12.1
80 | CCCS(=O)(=O)N[C@H]1CN(c2ncccc2C(N)=O)C[C@@H]1C(C)C | 0.22
81 | CC(=O)N1Cc2ccccc2C[C@H]1C(=O)N(C)Cc1ccccn1 | -14.8
82 | COc1ccc(Nc2nc3c(C)nn(C)c3c(=O)n2C)cc1 | 29.7
83 | CC(=O)N1CCC2(CC1)CN(C(=O)c1ccc3c(c1)OCCO3)C2 | 5.66
84 | CO[C@@H]1CN(S(=O)(=O)c2cn(C)cn2)[C@@H]2CCCO[C@@H]21 | -4.74
85 | CCOC(=O)[C@]12CCCN(Cc3ccco3)C[C@H]1CN(S(C)(=O)=O)C2 | -4.24
86 | COc1cccc(CC(=O)NCCc2nnc3n2CCCCC3)c1 | 18.7
87 | CCOCC1CC2(CCN(C(=O)C3CC=CC3)CC2)CO1 (stereo not given) | -8.99
88 | CN(C)C(=O)N1CCN(c2cc(N3CCCC3CO)ncn2)CC1 (stereo not given) | -4.25
89 | Cc1ccc2c(c1)C(=O)NCC1(CCN(C(=O)c3csc(C)c3)CC1)O2 | -9.12
90 | CCc1nc(C(=O)N2CCN(CCc3ccc(OC)cc3)CC2)c[nH]1 | -12.3
91 | Cc1ccc(C)c2c(O)cc(CNCc3ccc(S(N)(=O)=O)cc3)nc12 | -4.39
92 | COc1cccc(CNC(C)Cn2cccn2)c1OC (stereo not given) | 2.73

Row | Structure (SMILES) | cytotoxicity at 70.5 h [%]
93 | Cc1ccc(C(N)c2cccc(S(C)(=O)=O)c2)c(C)c1 (stereo not given) | -7.42
94 | CCN(Cc1cccs1)C(=O)c1ccc(=O)n(C)c1 | 1.17
95 | CCN(Cc1cccc2c1OCO2)C(=O)Nc1ccccn1 | -9.07
96 | Cc1nc(CC(=O)N2CCC(c3ccn4nccc4n3)CC2)cs1 | 1.76
97 | CCOC1CC2(CCN(Cc3nccn3C)CC2)C1 | -0.734
98 | CCn1ccnc1CN(C)c1cc(C2CCCNC2)nc(C)n1 (stereo not given) | -1.8
99 | CS(=O)(=O)CCNCc1ccc(OCc2cscn2)cc1 | -3.66
100 | Clc1cc(N2CCN3CCCCC3C2)nc2[nH]ccc12 (stereo not given) | -0.311
101 | CCOCc1nc2c(c(NC(CC)c3ccncc3)n1)CCNCC2 (stereo not given) | 1.72
102 | CC(C)C(NC(N)=O)C(=O)N1CCN(c2ccccc2Cl)C(=O)C1 (stereo not given) | -9.59
103 | COc1ccc(N2CCOCC3(CCCN(c4cnccn4)C3)C2)cc1 (stereo not given) | -1.59
104 | CC(C)c1cc(NC(=O)CN2CCc3nn(C)c(=O)cc3C2)on1 | -4.73
105 | CCC1CN(C(=O)COc2ccc(C)nc2)CCO1 (stereo not given) | 0.326
106 | CN(Cc1ccncc1)C1CCC[C@@H]2CN(c3ncccn3)C[C@H]12 (stereo not given in full) | -2.1
107 | O=C(c1ccoc1)N1CCC(O)(C(F)(F)F)CC1 | -12.1
108 | CC(C)c1cnc(CNc2c(F)cccc2-n2cccn2)o1 | -4.44
109 | COc1c(CNC(c2ccc(F)cc2)C(C)(C)C)c(C)nn1C (stereo not given) | 3.66
110 | COc1ccc(C2(C(=O)N3CC(c4cccnc4)C3)CC2(C)C)cc1 (stereo not given) | -0.294
111 | CC(C)CCn1cc(C(C(=O)O)N2CCCN(C3CCCC3)CC2)cn1 (stereo not given) | -9.63
112 | Cc1ccn(-c2ccnc(N3CCC(N4CCCCC4)CC3)n2)n1 | -13.2
113 | CC(=O)NCCNC(=O)Nc1cc(C(C)(C)C)sc1C#N | -1.29
114 | O=C(O)c1cn(CC2CCCN(c3nccc4occc34)C2)nn1 (stereo not given) | -14.6
115 | COCc1noc(Cn2ccc3ncccc3c2=O)n1 | -7.25
